The numbers were not newly measured in patent US20180153879A1, “Solid Dispersion Comprising μ-Opioid Antagonists” (Sandoz AG, priority 2016, published 2018), which cites them from elsewhere.

The conditions of this series: free base form, exposure to air.

Regarding `C=CCN1CC[C@]23c4c5ccc(O)c4O[C@H]2[C@@H](OCCOCCOCCOCCOCCOCCOCCOC)CC[C@@]3(O)[C@H]1C5` [naloxegol, (5α,6α)-17-allyl-6-(2,5,8,11,14,17,20-heptaoxadocosan-22-yloxy)-4,5-epoxymorphinan-3,14-diol], the oxidative stability entry is given as “can undergo oxidative degradation upon exposure to air”.
